Publication PMC6979384, “Characterization of the plant homeodomain (PHD) reader family for their histone tail interactions” (Epigenetics & Chromatin, 2020)

Key:
Experiment in all cases: Histone peptide microarray
Type in all cases: binding, human
Conditions in all cases: histone peptide array
PHF21A = system: PHF21A
Outline: (§1)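 GST-tagged PHD readers, 0.5 μM, probed on a microarray of 293 synthetic histone peptides carrying single or combinatorial PTMs (optimized Petell protocol). Signals are averaged over 4 replicates and expressed as relative binding.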

PHF13 = system: PHF13
Outline: as §1

KDM5B (3) = system: KDM5B (3)
Outline: as §1

MLL5 = system: MLL5
Outline: as §1

SP140L = system: SP140L
Outline: as §1

KDM4C (TTP) = system: KDM4C (TTP)
Outline: as §1

MORC3 (CW) = system: MORC3 (CW)
Outline: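 Each reader, produced as a GST fusion and purified, was tested at 0.5 μM on synthetic histone peptides (293 in total) carrying single or combinatorial marks. Intensities averaged over four replicates.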

DPF2 (PPC2W2) = system: DPF2 (PPC2W2)
Outline: as §1

KDM5B (1) = system: KDM5B (1)
Outline: as §1

PHF2 = system: PHF2
Outline: as §1

PHF23 = system: PHF23
Outline: as §1

TAF3 = system: TAF3
Outline: as §1

BPTF (PB) = system: BPTF (PB)
Outline: as §1

AIRE (PP) = system: AIRE (PP)
Outline: as §1

PHF8 = system: PHF8
Outline: as §1

ING4 = system: ING4
Outline: as §1

KDM5A (1) = system: KDM5A (1)
Outline: as §1

ING1 = system: ING1
Outline: as §1

ING3 = system: ING3
Outline: as §1

PHRF1 (RP) = system: PHRF1 (RP)
Outline: as §1

DIDO1 = system: DIDO1
Outline: as §1

CHD5 (PCC) = system: CHD5 (PCC)
Outline: as §1

KDM7A = system: KDM7A
Outline: as §1

ING5 = system: ING5
Outline: as §1

TRIM66 (PB) = system: TRIM66 (PB)
Outline: as §1

KDM5A (3) = system: KDM5A (3)
Outline: as §1

CHD4 (PPCC) = system: CHD4 (PPCC)
Outline: as §1

CHD5 (PPCC) = system: CHD5 (PPCC)
Outline: as §1

BAZ2B = system: BAZ2B
Outline: as §1

RAG2 = system: RAG2
Outline: as §1

ING2 = system: ING2
Outline: as §1

[1] = sheet "Array Heatmap", GST-tagged reader, total n = 4

## H3K4me3 + R8me2s + K9me3: H3 1-20
PHF21A; GST-tagged PHF21A, arrays performed twice, n of 4
  Array Heatmap signal, PHF21A: 0.4267
PHF13; GST-tagged PHF13, arrays performed twice, n of 4
  Array Heatmap signal, PHF13: 0.633
KDM5B (3); GST-tagged KDM5B (3), arrays performed twice, n of 4
  Array Heatmap signal, KDM5B (3): 0.5614
MLL5; GST-tagged MLL5, arrays performed twice, n of 4
  Array Heatmap signal, MLL5: 0.7037
SP140L; GST-tagged SP140L, arrays performed twice, n of 4
  Array Heatmap signal, SP140L: 0.3193
KDM4C (TTP); GST-tagged KDM4C (TTP = Tandem Tudor domain + PHD), arrays performed twice, n of 4
  Array Heatmap signal, KDM4C (TTP): 0.4847
MORC3 (CW); GST-tagged MORC3 (CW = CW-type Zn-finger), arrays performed twice, n of 4
  Array Heatmap signal, MORC3 (CW): 0.5559
DPF2 (PPC2W2); GST-tagged DPF2 (PPC2W2 = Dual PHD + C2W2-type Zn-finger), arrays performed twice, n of 4
  Array Heatmap signal, DPF2 (PPC2W2): 0.6565
KDM5B (1); GST-tagged KDM5B (1), arrays performed twice, n of 4
  Array Heatmap signal, KDM5B (1): 0.5808
PHF2; GST-tagged PHF2, arrays performed twice, n of 4
  Array Heatmap signal, PHF2: 0.8739
PHF23; GST-tagged PHF23, arrays performed twice, n of 4
  Array Heatmap signal, PHF23: 0.6635
TAF3; GST-tagged TAF3, arrays performed twice, n of 4
  Array Heatmap signal, TAF3: 0.3814
BPTF (PB); GST-tagged BPTF (PB = PHD + Bromodomain), arrays performed twice, n of 4
  Array Heatmap signal, BPTF (PB): 0.3866
AIRE (PP); GST-tagged AIRE (PP), arrays performed twice, n of 4
  Array Heatmap signal, AIRE (PP): 0.378
PHF8; GST-tagged PHF8, arrays performed twice, n of 4
  Array Heatmap signal, PHF8: 0.5138
ING4; GST-tagged ING4, arrays performed twice, n of 4
  Array Heatmap signal, ING4: 0.4627
KDM5A (1); GST-tagged KDM5A (1), arrays performed twice, n of 4
  Array Heatmap signal, KDM5A (1): 0.429
ING1; GST-tagged ING1, arrays performed twice, n of 4
  Array Heatmap signal, ING1: 0.7489
ING3; GST-tagged ING3, arrays performed twice, n of 4
  Array Heatmap signal, ING3: 0.5388
PHRF1 (RP); GST-tagged PHRF1 (RP), arrays performed twice, n of 4
  Array Heatmap signal, PHRF1 (RP): 0.4616
DIDO1; GST-tagged DIDO1, arrays performed twice, n of 4
  Array Heatmap signal, DIDO1: 0.802
CHD5 (PCC); GST-tagged CHD5 (PCC = PHD + Dual Chromodomain), arrays performed twice, n of 4
  Array Heatmap signal, CHD5 (PCC): 0.7143
KDM7A; GST-tagged KDM7A, arrays performed twice, n of 4
  Array Heatmap signal, KDM7A: 0.3751
ING5; GST-tagged ING5, arrays performed twice, n of 4
  Array Heatmap signal, ING5: 0.3819
TRIM66 (PB); GST-tagged TRIM66 (PB = PHD + Bromodomain), arrays performed twice, n of 4
  Array Heatmap signal, TRIM66 (PB): 0.6066
KDM5A (3); GST-tagged KDM5A (3), arrays performed twice, n of 4
  Array Heatmap signal, KDM5A (3): 0.7166
CHD4 (PPCC); GST-tagged CHD4 (PPCC = Dual PHD + Dual Chromodomain), arrays performed twice, n of 4
  Array Heatmap signal, CHD4 (PPCC): 0.5208
CHD5 (PPCC); GST-tagged CHD5 (PPCC = Dual PHD + Dual Chromodomain), arrays performed twice, n of 4
  Array Heatmap signal, CHD5 (PPCC): 0.5185
BAZ2B; GST-tagged BAZ2B, arrays performed twice, n of 4
  Array Heatmap signal, BAZ2B: 0.4293
RAG2; GST-tagged RAG2, arrays performed twice, n of 4
  Array Heatmap signal, RAG2: 0.4516
ING2; GST-tagged ING2, arrays performed twice, n of 4
  Array Heatmap signal, ING2: 0.784

## H3K4me3 + T6p: H3 1-20
PHF21A; [1]
  Array Heatmap signal, PHF21A: 0.4225
PHF13; [1]
  Array Heatmap signal, PHF13: 0.5795
KDM5B (3); [1]
  Array Heatmap signal, KDM5B (3): 0.4934
MLL5; [1]
  Array Heatmap signal, MLL5: 0.5684
SP140L; [1]
  Array Heatmap signal, SP140L: 0.3667
KDM4C (TTP); [1]
  Array Heatmap signal, KDM4C (TTP): 0.4688
MORC3 (CW); [1]
  Array Heatmap signal, MORC3 (CW): 0.3571
DPF2 (PPC2W2); [1]
  Array Heatmap signal, DPF2 (PPC2W2): 0.6833
KDM5B (1); [1]
  Array Heatmap signal, KDM5B (1): 0.6162
PHF2; [1]
  Array Heatmap signal, PHF2: 0.6668
PHF23; [1]
  Array Heatmap signal, PHF23: 0.5195
TAF3; [1]
  Array Heatmap signal, TAF3: 0.309
BPTF (PB); [1]
  Array Heatmap signal, BPTF (PB): 0.3519
AIRE (PP); [1]
  Array Heatmap signal, AIRE (PP): 0.4133
PHF8; [1]
  Array Heatmap signal, PHF8: 0.3678
ING4; [1]
  Array Heatmap signal, ING4: 0.4567
KDM5A (1); [1]
  Array Heatmap signal, KDM5A (1): 0.452
ING1; [1]
  Array Heatmap signal, ING1: 0.5971
ING3; [1]
  Array Heatmap signal, ING3: 0.4695
PHRF1 (RP); [1]
  Array Heatmap signal, PHRF1 (RP): 0.5056
DIDO1; [1]
  Array Heatmap signal, DIDO1: 0.7585
CHD5 (PCC); [1]
  Array Heatmap signal, CHD5 (PCC): 0.7037
KDM7A; [1]
  Array Heatmap signal, KDM7A: 0.3405
ING5; [1]
  Array Heatmap signal, ING5: 0.3481
TRIM66 (PB); [1]
  Array Heatmap signal, TRIM66 (PB): 0.549
KDM5A (3); [1]
  Array Heatmap signal, KDM5A (3): 0.4911
CHD4 (PPCC); [1]
  Array Heatmap signal, CHD4 (PPCC): 0.5535
CHD5 (PPCC); [1]
  Array Heatmap signal, CHD5 (PPCC): 0.54
BAZ2B; [1]
  Array Heatmap signal, BAZ2B: 0.4415
RAG2; [1]
  Array Heatmap signal, RAG2: 0.2443
ING2; [1]
  Array Heatmap signal, ING2: 0.6187
